Measurements from patent US11382956B2, “Amylin analogues” (Zealand Pharma A/S, priority 2016, dated 2022).
Numbered stars: 1 amine (or outer) side, 2 acyl side, 3 side chain; on linkers, the order of the positions; unused ones are H or OH. Bridge positions count the residues as written; N and C are the ends. Square brackets hold non-standard residues; d marks the D form. Peptide text beside a SMILES is read from it. * marks the point of attachment. C20 diacid = O=C(O)CCCCCCCCCCCCCCCCCCC(=O)*; γGlu = O=C(O)[C@H](CCC(=O)[*:2])N[*:1]; Hyp = O=C(O)[C@@H]1C[C@@H](O)CN1; NMeI = CC[C@H](C)[C@H](NC)C(=O)O; Aad = N[C@@H](CCCC(=O)O)C(=O)O; Orn = NCCC[C@H](N)C(=O)O; Dab = NCC[C@H](N)C(=O)O; Sar = CNCC(=O)O

Assays:
[1] = biological target: T1, recombinant human amylin 3 receptor (hAMYR3) (Homo sapiens, UniProt O60896+P30988); experiment: hAMYR3 cAMP assay (AlphaScreen) in 1321N1 cells; format: cell-based; conditions: cAMP formation, 45 min stimulation
T1 construct: host or cells: human astrocytoma cell line 1321N1
T1 sequence (P30988 25-474): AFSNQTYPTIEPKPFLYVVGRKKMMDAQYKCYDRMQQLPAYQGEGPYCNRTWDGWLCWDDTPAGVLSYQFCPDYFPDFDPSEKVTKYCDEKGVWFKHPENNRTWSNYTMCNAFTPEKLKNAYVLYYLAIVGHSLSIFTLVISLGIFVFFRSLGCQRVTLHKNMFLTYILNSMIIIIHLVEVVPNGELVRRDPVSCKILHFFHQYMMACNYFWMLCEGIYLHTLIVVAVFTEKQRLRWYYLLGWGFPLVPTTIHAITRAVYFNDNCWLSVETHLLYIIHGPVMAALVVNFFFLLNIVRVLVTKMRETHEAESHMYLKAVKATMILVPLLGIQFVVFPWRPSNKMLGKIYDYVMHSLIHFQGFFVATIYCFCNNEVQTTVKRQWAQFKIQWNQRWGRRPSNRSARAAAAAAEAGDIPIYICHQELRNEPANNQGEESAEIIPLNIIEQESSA
T1 sequence (O60896 24-148 partner): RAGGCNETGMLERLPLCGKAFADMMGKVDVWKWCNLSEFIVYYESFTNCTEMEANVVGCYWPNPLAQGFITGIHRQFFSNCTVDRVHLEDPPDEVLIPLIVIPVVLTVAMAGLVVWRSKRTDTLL
Excerpt: (§1) For the assessment of the in vitro activity of test peptides, cell lines expressing recombinant human calcitonin receptor (hCT-R) or recombinant human amylin 3 receptor (hAMYR3) in the background of the human astrocytoma cell line 1321N1 were purchased from DiscoveRx Corporation (Cat. No. 95-016106 and 95-0166C6). The hAMYR3 is a hetero-oligomer of the calcitonin receptor (Isoform 2; Gene ID 799) and RAMPS (Gene ID 10268) that forms when both genes are expressed in the same cell. The hCT-R cell line expresses only the recombinant human calcitonin receptor gene (Isoform 2; Gene ID 799). Upon activation of hCT-R or hAMYR3 by the test peptides the formation of cAMP is induced and was measured using the AlphaScreen® cAMP Assay kit from Perkin-Elmer (Cat. No. 6760635R).
(§2) Briefly, 1321N1 cells expressing hCT-R or hAMYR3 were seeded in 384-well microtiter plates (Falcon Optilux White, Cat.-No. 10448642) at 5,000 cells in […] growth medium per well (AssayComplete 1321N1 Cell Culture Kit, DiscoveRx Corp.), and incubated for 24 h at 37° C., 5% CO2. On the day of analysis growth medium was removed and the cells were stimulated by adding 10 μL of stimulation buffer (10 […], 0.1% BSA) containing increasing concentrations of test peptides, and incubation for 45 min at room temperature. The stimulation was stopped by adding 5.6 μL/well donor bead detection mix (5 mM Hepes pH7.4, 0.5% TWEEN 20, 0.1% BSA, 0.05 mg/mL donor beads, 62.5 nM biotinylated cAMP) and 4.5 μL/well acceptor bead solution (5 mM Hepes pH7.4, 0.5% TWEEN 20, 0.1% BSA, 0.05 mg/mL acceptor beads). After thorough mixing the plates were incubated in the dark for 1 h at room temperature and the cAMP content of the resulting cell lysates was estimated according to the AlphaScreen® cAMP Assay manufacturer's instructions. EC50 values were estimated by computer-aided curve fitting of results of at least 7 different compound concentrations.

[2] = biological target: T2, recombinant human calcitonin receptor (hCT-R) (Homo sapiens, UniProt P30988); experiment: hCT-R cAMP assay (AlphaScreen) in 1321N1 cells; format: cell-based; conditions: cAMP formation, 45 min stimulation
T2 construct: host or cells: human astrocytoma cell line 1321N1
T2 sequence (P30988 25-474): T1 sequence (P30988 25-474)
Excerpt: as §1, §2

Row | Compound | EC50 [1] [nM] | EC50 [2] [nM]
1 | CC[C@H](C)[C@@H](C(=O)N[C@@H](CC(C)C)C(=O)N[C@@H](CO)C(=O)N[C@@H](CO)C(=O)N[C@H](C(=O)N[C@@H](CCC(=O)O)C(=O)N[C@H](C(=O)NCC(=O)N[C@@H](CO)C(=O)N[C@@H](CO)C(=O)N[C@H](C(=O)N1C[C@H](O)C[C@H]1C(N)=O)[C@@H](C)O)C(C)C)[C@@H](C)O)N(C)C(=O)[C@H](C)NC(=O)CN(C)C(=O)[C@H](Cc1ccccc1)NC(=O)[C@H](CO)NC(=O)[C@H](CO)NC(=O)[C@H](CCCNC(=N)N)NC(=O)[C@@H](NC(=O)[C@H](CC(C)C)NC(=O)[C@H](Cc1ccccc1)NC(=O)[C@H](CCCC(=O)O)NC(=O)[C@H](C)NC(=O)[C@H](CC(C)C)NC(=O)[C@H](CCCNC(=N)N)NC(=O)[C@H](CCC(=O)O)NC(=O)[C@@H](NC(=O)[C@H](C)NC(=O)[C@@H]1CCCNC(=O)C[C@H](NC(=O)[C@H](CCCNC(=N)N)NC(=O)CC[C@H](NC(=O)CCCCCCCCCCCCCCCCCCC(=O)O)C(=O)O)C(=O)NCC(=O)N[C@@H]([C@@H](C)O)C(=O)N[C@@H](C)C(=O)N[C@@H]([C@@H](C)O)C(=O)N1)[C@@H](C)O)[C@@H](C)O [Compound 22, [19CD]-isoGlu-RD()GTAT-Orn()-ATERLA-Aad-FLTRSSF-Gly(Me)-A-Ile(Me)-LSSTEVGSST-Hyp-NH2] ({C20 diacid-γGlu}-RDGTAT[Orn]ATERLA[Aad]FLTRSSF[Sar]A[NMeI]LSSTEVGSST[Hyp]-NH2; lactam 2-7) | 0.051 | 0.474
2 | CC[C@H](C)[C@@H](C(=O)N[C@@H](CC(C)C)C(=O)N[C@@H](CO)C(=O)N[C@@H](CO)C(=O)N[C@H](C(=O)N[C@@H](CCC(=O)O)C(=O)N[C@H](C(=O)NCC(=O)N[C@@H](CO)C(=O)N[C@@H](CC(N)=O)C(=O)N[C@H](C(=O)N1C[C@H](O)C[C@H]1C(N)=O)[C@@H](C)O)C(C)C)[C@@H](C)O)N(C)C(=O)[C@H](C)NC(=O)CN(C)C(=O)[C@H](Cc1ccccc1)NC(=O)[C@H](C)NC(=O)[C@H](C)NC(=O)[C@H](CCCNC(=N)N)NC(=O)[C@H](CCC(N)=O)NC(=O)[C@H](CC(C)C)NC(=O)[C@H](Cc1ccccc1)NC(=O)[C@H](CCCC(=O)O)NC(=O)[C@H](C)NC(=O)[C@H](CC(C)C)NC(=O)[C@H](CCCNC(=N)N)NC(=O)[C@H](CCC(=O)O)NC(=O)[C@@H](NC(=O)[C@H](C)NC(=O)[C@@H]1CCCNC(=O)C[C@H](NC(=O)[C@H](CCCNC(=N)N)NC(=O)CC[C@H](NC(=O)CCCCCCCCCCCCCCCCCCC(=O)O)C(=O)O)C(=O)NCC(=O)N[C@@H]([C@@H](C)O)C(=O)N[C@@H](C)C(=O)N[C@@H]([C@@H](C)O)C(=O)N1)[C@@H](C)O [Compound 26, [19CD]-isoGlu-RD()GTAT-Orn()-ATERLA-Aad-FLQRAAF-Gly(Me)-A-Ile(Me)-LSSTEVGSNT-Hyp-NH2] ({C20 diacid-γGlu}-RDGTAT[Orn]ATERLA[Aad]FLQRAAF[Sar]A[NMeI]LSSTEVGSNT[Hyp]-NH2; lactam 2-7) | 0.12 | 0.769
3 | CC[C@H](C)[C@@H](C(=O)N[C@@H](CC(C)C)C(=O)N[C@@H](CO)C(=O)N[C@@H](CO)C(=O)N[C@H](C(=O)N[C@@H](CCC(=O)O)C(=O)N[C@H](C(=O)NCC(=O)N[C@@H](CO)C(=O)N[C@@H](CC(N)=O)C(=O)N[C@H](C(=O)N1C[C@H](O)C[C@H]1C(N)=O)[C@@H](C)O)C(C)C)[C@@H](C)O)N(C)C(=O)[C@H](C)NC(=O)CN(C)C(=O)[C@H](Cc1ccccc1)NC(=O)[C@H](CO)NC(=O)[C@H](CO)NC(=O)[C@H](CCCNC(=N)N)NC(=O)[C@H](CCC(N)=O)NC(=O)[C@H](CC(C)C)NC(=O)[C@H](Cc1ccccc1)NC(=O)[C@H](Cc1c[nH]cn1)NC(=O)[C@H](C)NC(=O)[C@H](CC(C)C)NC(=O)[C@H](CCCNC(=N)N)NC(=O)[C@H](CCC(=O)O)NC(=O)[C@@H](NC(=O)[C@H](C)NC(=O)[C@@H]1CCCCNC(=O)C[C@H](NC(=O)[C@H](CCCNC(=N)N)NC(=O)CC[C@H](NC(=O)CCCCCCCCCCCCCCCCCCC(=O)O)C(=O)O)C(=O)NCC(=O)N[C@@H]([C@@H](C)O)C(=O)N[C@@H](CC(C)C)C(=O)N[C@@H]([C@@H](C)O)C(=O)N1)[C@@H](C)O [Compound 13, [19CD]-isoGlu-RD()GTLTK()ATERLAHFLQRSSF-Gly(Me)-A-Ile(Me)-LSSTEVGSNT-Hyp-NH2] ({C20 diacid-γGlu}-RDGTLTKATERLAHFLQRSSF[Sar]A[NMeI]LSSTEVGSNT[Hyp]-NH2; lactam 2-7) | 0.456 | 1.41

More lines, now with the values ahead:

Row | EC50 [1] [nM] | EC50 [2] [nM] | Compound
4 | 5.5 | 7.5 | CC[C@H](C)[C@@H](C(=O)N[C@@H](CC(C)C)C(=O)N[C@@H](CO)C(=O)N[C@@H](CO)C(=O)N[C@H](C(=O)N[C@@H](CCC(=O)O)C(=O)N[C@H](C(=O)NCC(=O)N[C@@H](CO)C(=O)N[C@@H](CC(N)=O)C(=O)N[C@H](C(=O)N1C[C@H](O)C[C@H]1C(N)=O)[C@@H](C)O)C(C)C)[C@@H](C)O)N(C)C(=O)[C@H](C)NC(=O)CN(C)C(=O)[C@H](Cc1ccccc1)NC(=O)[C@H](CO)NC(=O)[C@H](CO)NC(=O)[C@H](CCCNC(=N)N)NC(=O)[C@H](CCC(N)=O)NC(=O)[C@H](CC(C)C)NC(=O)[C@H](Cc1ccccc1)NC(=O)[C@H](Cc1c[nH]cn1)NC(=O)[C@H](C)NC(=O)[C@H](CC(C)C)NC(=O)[C@H](CCCNC(=N)N)NC(=O)[C@H](CCC(=O)O)NC(=O)[C@@H](NC(=O)[C@H](C)NC(=O)[C@@H]1CC(=O)NCC[C@H](NC(=O)[C@H](CCCNC(=N)N)NC(=O)CC[C@H](NC(=O)CCCCCCCCCCCCCCCCCCC(=O)O)C(=O)O)C(=O)NCC(=O)N[C@@H]([C@@H](C)O)C(=O)N[C@@H](C)C(=O)N[C@@H]([C@@H](C)O)C(=O)N1)[C@@H](C)O [Compound 46, [19CD]-isoGlu-R-Dab()-GTATD()ATERLAHFLQRSSF-Gly(Me)-A-Ile(Me)-LSSTEVGSNT-Hyp-NH2] ({C20 diacid-γGlu}-R[Dab]GTATDATERLAHFLQRSSF[Sar]A[NMeI]LSSTEVGSNT[Hyp]-NH2; lactam 2-7)
5 | 0.003 | 0.006 | CC[C@H](C)[C@@H](C(=O)N[C@@H](CC(C)C)C(=O)N[C@@H](CO)C(=O)N[C@@H](CO)C(=O)N[C@H](C(=O)N[C@@H](CCC(=O)O)C(=O)N[C@H](C(=O)NCC(=O)N[C@@H](CO)C(=O)N[C@@H](CC(N)=O)C(=O)N[C@H](C(=O)N1C[C@H](O)C[C@H]1C(N)=O)[C@@H](C)O)[C@@H](C)O)[C@@H](C)O)N(C)C(=O)[C@H](C)NC(=O)CN(C)C(=O)[C@H](Cc1ccccc1)NC(=O)[C@H](CO)NC(=O)[C@H](CO)NC(=O)[C@H](CCCNC(=N)N)NC(=O)[C@H](CCC(N)=O)NC(=O)[C@H](CC(C)C)NC(=O)[C@H](Cc1ccccc1)NC(=O)[C@H](CC(=O)O)NC(=O)[C@H](C)NC(=O)[C@H](CC(C)C)NC(=O)[C@H](CCCNC(=N)N)NC(=O)[C@H](CCC(N)=O)NC(=O)[C@@H](NC(=O)[C@H](C)NC(=O)[C@@H]1CCCCNC(=O)C[C@H](NC(=O)[C@H](CCCNC(=N)N)NC(=O)CC[C@H](NC(=O)CCCCCCCCCCCCCCCCCCC(=O)O)C(=O)O)C(=O)NCC(=O)N[C@@H]([C@@H](C)O)C(=O)N[C@@H](C)C(=O)N[C@@H]([C@@H](C)O)C(=O)N1)[C@@H](C)O [Compound 42, [19CD]-isoGlu-RD()GTATK()ATQRLADFLQRSSF-Gly(Me)-A-Ile(Me)-LSSTETGSNT-Hyp-NH2] ({C20 diacid-γGlu}-RDGTATKATQRLADFLQRSSF[Sar]A[NMeI]LSSTETGSNT[Hyp]-NH2; lactam 2-7)
